Measured values as given in patent US20220389008A1, “4-QUINOLINONE ANTIBACTERIAL COMPOUNDS” (Janssen Sciences Ireland Unlimited Company, priority 2019, published 2022).
“And” between values parts separate entries of the source, which are not always exact repeats. Identical values can stand only once. Like-named read-outs stand apart in the source and are kept apart here.

Tests used:
[1] = tested on: Mitochondrial toxicity (Glu/Gal); test: Mitochondrial toxicity (Glu/Gal) assay; assay type: cell-based; set-up: key to Score: “negative” means that in the test, it was found to have low mitotoxicity (and hence no mitotoxicity alerts); “positive” means that there were some mitotoxicity alerts; “inconclusive” means that no accurate conclusion could be drawn; conditions: for Score: mitotoxicity score; for Δ IC50,glu/IC50,gal: ratio glu/gal
[2] = tested on: Mycobacterium tuberculosis strain H37Rv ΔctaE-ΔqcrCAB; test: microbe, parasite or virus in culture; assay type: cell-based; conditions: 240 h
[3] = tested on: M. tuberculosis (strain H37Rv and H37Ra); test: Time kill kinetics assay (Test 3); assay type: cell-based, Mycobacterium tuberculosis
Method: Time Kill Kinetics Assays: Test 3
Bactericidal or bacteriostatic activity of the compounds can be determined in a time kill kinetic assay using the broth dilution method. In this assay, the starting inoculum of M. tuberculosis (strain H37Rv and H37Ra) is 10^6 CFU/ml in Middlebrook (1×) 7H9 broth. The test compounds (cyt bd inhibitors) are tested in combination with a cyt bc inhibitor (for example Q203 or Compound X) at the concentration ranging from 10-30 μM to 0.9-0.3 μM respectively. Tubes receiving no antibacterial agent constitute the culture growth control. The tubes containing the microorganism and the test compounds are incubated at 37° C. After 0, 1, 4, 7, 14 and 21 days of incubation samples are removed for determination of viable counts by serial dilution (10^0 to 10^−6) in Middlebrook 7H9 medium and plating (100 μl) on Middlebrook 7H11 agar. The plates are incubated at 37° C. for 21 days and the number of colonies are determined. Killing curves can be constructed by plotting the log10 CFU per ml versus time. A bactericidal effect of a cytochrome be and cytochrome bd inhibitor (either alone or in combination) is commonly defined as 2-log10 decrease (decrease in CFU per ml) compared to Day 0. The potential carryover effect of the drugs is limited by using 0.4% charcoal in the agar plates, and by serial dilutions and counting the colonies at highest dilution possible used for plating.
Compounds of the examples are/were tested in Test 3 (the kill kinetics) described above, obtaining results expressed as a log reduction in CFUs per ml as compared to Day 0.

[4] = tested on: Mycobacterium tuberculosis (strain H37Ra), cyt bd; conditions: Mtb H37Ra; for (i) % OCR after cyt bd inhibitor: test compound 10 μM added after Compound X 0.9 μM; for (ii) % OCR after cccp: test compound 10 μM after Compound X 0.9 μM, then CCCP 1 μM
[5] = target: hERG (Homo sapiens, UniProt Q12809); test: CVS / cardio tox hERG (DOF); assay type: binding; conditions: CVS; read-out: hERG IC50
hERG, sequence (Q12809 whole entry): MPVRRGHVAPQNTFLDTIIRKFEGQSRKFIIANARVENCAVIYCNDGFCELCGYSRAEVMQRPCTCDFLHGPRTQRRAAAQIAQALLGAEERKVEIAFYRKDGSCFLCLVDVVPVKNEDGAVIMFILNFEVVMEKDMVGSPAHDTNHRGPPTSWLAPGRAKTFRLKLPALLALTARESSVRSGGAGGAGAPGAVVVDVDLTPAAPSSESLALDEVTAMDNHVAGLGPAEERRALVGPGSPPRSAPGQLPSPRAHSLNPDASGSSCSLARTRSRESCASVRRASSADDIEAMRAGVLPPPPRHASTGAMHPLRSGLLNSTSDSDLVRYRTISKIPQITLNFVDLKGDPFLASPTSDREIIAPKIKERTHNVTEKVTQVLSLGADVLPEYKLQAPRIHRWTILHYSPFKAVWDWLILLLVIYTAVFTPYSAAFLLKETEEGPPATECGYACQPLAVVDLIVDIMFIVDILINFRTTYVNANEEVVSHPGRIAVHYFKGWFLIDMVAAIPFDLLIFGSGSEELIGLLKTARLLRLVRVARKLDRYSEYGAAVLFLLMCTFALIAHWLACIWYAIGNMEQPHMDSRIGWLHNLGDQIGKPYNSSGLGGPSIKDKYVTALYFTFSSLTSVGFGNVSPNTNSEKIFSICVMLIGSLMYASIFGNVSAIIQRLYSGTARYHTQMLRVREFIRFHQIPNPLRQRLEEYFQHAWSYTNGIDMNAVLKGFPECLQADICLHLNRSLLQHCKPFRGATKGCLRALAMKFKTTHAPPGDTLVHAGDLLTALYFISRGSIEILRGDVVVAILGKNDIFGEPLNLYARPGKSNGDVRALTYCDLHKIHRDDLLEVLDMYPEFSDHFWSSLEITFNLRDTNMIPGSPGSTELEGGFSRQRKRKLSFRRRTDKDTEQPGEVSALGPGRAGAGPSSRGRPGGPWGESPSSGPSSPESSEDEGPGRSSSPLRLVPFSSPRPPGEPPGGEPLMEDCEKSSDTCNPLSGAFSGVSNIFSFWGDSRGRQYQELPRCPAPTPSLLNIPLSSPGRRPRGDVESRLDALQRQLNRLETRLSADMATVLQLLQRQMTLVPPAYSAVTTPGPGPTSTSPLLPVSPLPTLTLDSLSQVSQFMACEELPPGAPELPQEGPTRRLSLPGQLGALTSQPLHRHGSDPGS

[6] = tested on: rNaCh; test: CVS / cardio tox rNaCh; assay type: binding, rat; conditions: CVS; read-out: rNaCh IC50
[7] = GSH and CN adducts (reactive metabolite formation)
[8] = tested on: rCaCh; test: CVS / cardio tox rCaCh; assay type: binding, rat; conditions: CVS
[9] = AMES II b (+/−rat S9)
[10] = PK parameters in mice
[11] = tested on: h-cardiomyocytes; test: CTCM Ca2+ transient h-cardiomyocytes HTS; conditions: 0.1 μm, 0.2 μm, 0.5 μm, 1 μm, 2.5 μm, 5 μm
[12] = galactose medium, read-out: IC50, gal
[13] = glucose medium, read-out: IC50, glu
[14] = compound alone 12 μg/ml, Log Day 0 5.56 (Q203 experiment)
[15] = compound alone 12 μg/ml, Log Day 0 6.66
[16] = Q203 alone 0.168 μg/ml, Log Day 0 5.56
[17] = Compound X alone 0.17 μg/ml, Log Day 0 6.66

Compound | IC50 [1, 12] | IC50 [1, 13] | Score [1] | Δ IC50,glu/IC50,gal [1] | IC50 [2] [µM] | Log Day 21 [3, 14] [log CFUs per ml] | Log Day 21-Log Day 0 [3, 14] | (i) % OCR after cyt bd inhibitor [4] [%] | (ii) % OCR after cccp [4] [%] | Log Day 21 [3, 15] [log CFUs per ml] | Log Day 21-Log Day 0 [3, 15] | further results
Cc1c(-c2nc3cc(-c4ccc(OC(F)(F)F)cc4)ccn3n2)[nH]c2ccccc2c1=O [Compound 2] | 100 µM | 100 µM | negative | [x]0 | 1.33 | 8.69 | +3.13 log CFUs per ml | 24.8 | 38.3 | – | – | –
Cc1c(-c2nc3ccc(-c4ccc(OC(F)(F)F)cc4)cn3n2)[nH]c2ccccc2c1=O [Compound 6] | 21.9 µM and 22.1 µM | 15.6 µM and 26.5 µM | negative | 1.2 | 0.653 | 8.64 | +3.08 log CFUs per ml | 39.7 | 58.4 | 9.06 | +2.40 log CFUs per ml | IC50 [5]: > 10 µM; Δ IC50,glu/IC50,gal ([1]; listed as 6 (repeat)): 1.4; IC50 [6]: > 10 µM; GSH and CN adducts [7]: negative; IC50 [8]: > 10 µM; AMES II b (+/−rat S9) [9]: negative; CI ([10]; mice): 0.101 L/h/kg; Fab % ([10]; mice): 64%; half-life ([10]; mouse, in vivo): 5.6 h; CTCM Ca2+ transient h-cardiomyocytes HTS [11]: all no
Cc1c(-c2nc3ccc(-c4cccc(OC(F)(F)F)c4)cn3n2)[nH]c2ccccc2c1=O [Compound 7] | 20 µM | 20 µM | negative | [x]0 | 1.41 | – | – | 36.5 | 54.6 | 9.13 | +2.47 log CFUs per ml | –
CCc1nc2ccc(Cl)cn2c1C(=O)NCc1ccc(N2CCC(c3ccc(OC(F)(F)F)cc3)CC2)cc1 [Compound Q203, 6-chloro-2-ethyl-N-(4-(4-(4-(trifluoromethoxy)phenyl)piperidin-1-yl)benzyl)imidazo[1,2-a]pyridine-3-carboxamide, reference compound] | – | – | – | – | – | – | – | – | – | – | – | Log Day 21 [3, 16]: 2.59 log CFUs per ml; Log Day 21-Log Day 0 [3, 16]: −2.97 log CFUs per ml
CCc1nc2ccc(Cl)cn2c1C(=O)NCc1ccc(C2CC3(C2)CN(S(=O)(=O)C(F)(F)F)C3)cc1 [Compound X, 6-chloro-2-ethyl -N-({4-[2-(trifluoromethanesulfonyl)-2-azaspiro[3.3]heptan-6-yl]phenyl}methyl)imidazo[1,2-a]pyridine-3-carboxamide, reference compound] | – | – | – | – | – | – | – | – | – | – | – | Log Day 21 [3, 17]: 5.93 log CFUs per ml; Log Day 21-Log Day 0 [3, 17]: −0.73 log CFUs per ml
